Like-named read-outs stand apart in the source and are kept apart here.
Legend:
glucagon receptor (GCGR) = molecular target: T1, glucagon receptor (GCGR) (Homo sapiens, UniProt P47871); test: I125-glucagon binding assay (competition, GCGR membrane fractions)
T1 construct: expressed in transfected cells; host or cells: CHO-K1 cells overexpressing GCGR (membrane fractions)
Method in brief: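 Competition of 0.0625 nM (final) I^125-glucagon for 30 min at 25° C, after 5 min compound preincubation, using 7.5 μg/well GCGR-overexpressing CHO-K1 membranes in 50 mM Tris pH 7.4, 0.5% BSA. Filtration onto PEI-coated GF/B, micro-beta counting, and non-linear regression gave IC50.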

[1] = molecular target: T2, glucagon receptor (GCGR) overexpressed CHO-K1 cells or human primary hepatocytes (Homo sapiens, UniProt P47871); test: Glucagon cAMP inhibition assay (Cisbio cAMP Dynamic 2 HTRF); format: cell-based
T2 construct: expressed in transfected cells; host or cells: GCGR overexpressed CHO-K1 cells or human primary hepatocytes (endogenous receptor)
T2 sequence (P47871 26-477): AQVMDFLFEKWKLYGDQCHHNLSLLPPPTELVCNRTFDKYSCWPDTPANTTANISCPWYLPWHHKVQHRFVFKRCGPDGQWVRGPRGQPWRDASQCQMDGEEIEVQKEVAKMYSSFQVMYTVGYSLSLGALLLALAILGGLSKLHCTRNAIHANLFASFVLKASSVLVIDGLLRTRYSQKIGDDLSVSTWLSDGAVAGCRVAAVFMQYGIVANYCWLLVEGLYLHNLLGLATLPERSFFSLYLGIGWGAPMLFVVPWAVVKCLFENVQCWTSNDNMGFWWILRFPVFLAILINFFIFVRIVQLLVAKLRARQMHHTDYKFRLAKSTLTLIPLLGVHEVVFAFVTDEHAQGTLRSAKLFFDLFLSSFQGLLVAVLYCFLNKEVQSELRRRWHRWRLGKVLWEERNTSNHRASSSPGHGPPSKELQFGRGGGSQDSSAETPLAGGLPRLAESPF
Method in brief: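 HTRF read-out of glucagon-induced cAMP, with IC50 from non-linear regression. Cells (GCGR CHO-K1 or human primary hepatocytes) in HBSS/0.1% BSA/800 nM IBMX took compound dilutions for 30 min (final DMSO 1%), then EC50-level glucagon for 30 min at room temperature, then a 60 min lysis/detection step.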

[2] = competition with I125-glucagon 0.0625 nM, membrane fractions of GCGR overexpressed CHO-K1 cells
[3] = inhibition of glucagon (EC50 concentration) induced cAMP production

T1 sequence (P47871 26-477): as above

Structure (SMILES) | IC50 (glucagon receptor (GCGR); [2]) [nM] | IC50 cAMP [1, 3] [nM] | IC50 (glucagon receptor (GCGR)) [nM] | IC50 cAMP [1] [nM]
CC(C)[C@@H](COc1ccc(-c2nc3ccccc3s2)c(F)c1)Nc1ccc(C(=O)NCCC(=O)O)cc1 [Compound 8-25, (S)-3-(4-((1-(4-(benzo[d]thiazol-2-yl)-3-fluorophenoxy)-3-methylbutan-2-yl)amino)benzamido)propanoic Acid] | 95 | 653 | – | –
CCCC[C@@H](COc1ccc(-c2ccc(Cl)cc2Cl)c(OC)c1)Nc1ccc(C(=O)NCCC(=O)O)cc1 [Compound 13-9, (S)-3-(4-((1-((2′,4′-dichloro-2-methoxy-[1,1′-biphenyl]-4-yl)oxy)hexan-2-yl)amino)benzamido)propanoic Acid] | 54 | 219 | – | –
CCCC[C@@H](COc1ccc(-c2ccc(C(F)(F)F)cc2Cl)cn1)Nc1ccc(C(=O)NCCC(=O)O)cc1 [Compound 15-25, (S)-3-(4-((1-((5-(2-chlor-4-(trifluoromethyl)phenyl)pyridin-2-yl)oxy)hexan-2-yl)amino)benzamido)propanoic Acid] | – | – | 218 | 245
CCOC(=O)CCNC(=O)c1ccc(N[C@H](COc2ccc(-c3nnc(C(C)(C)C)o3)cn2)c2ccc(-c3ccc(Cl)cc3Cl)cc2)cc1 [Compound 15-33, Ethyl (S)-3-(4-((2-((5-(5-(tert-butyl)-1,3,4-oxadiazol-2-yl)pyridin-2-yl)oxy)-1-(2′,4′-dichloro-[1,1′-biphenyl]-4-yl)ethyl)amino)benzamido)propanoate] | – | – | > 30000 | >30000
CC(C)[C@@H](COc1ccc(-c2ccc(Cl)cc2Cl)nc1)Nc1ccc(C(=O)NCCC(=O)O)cc1 [Compound 10-4, (S)-3-(4-((1-((6-(2,4-dichlorophenyl)pyridin-3-yl)oxy)-3-methylbutan-2-yl)amino)benzamido)propanoic Acid] | 445 | 4036 | – | –
O=C(O)CCNC(=O)c1ccc(N[C@H](Cc2ccc(-c3ccc(C(F)(F)F)cc3)cc2)C(=O)Nc2ccc(OC(F)(F)F)cc2)cc1 [Compound 24-28, (R)-3-(4-((1-oxo-1-((4-(trifluoromethoxy)phenyl)amino)-3-(4′-(trifluoromethyl)-[1,1′-biphenyl]-4-yl)propan-2-yl)amino)benzamido)propanoic Acid] | – | – | 46.5 | 1540
CC(C)COC[C@H](Cc1ccc(-c2ccccc2C(F)(F)F)cc1)Nc1ccc(C(=O)NCCC(=O)O)cc1 [Compound 19-29, (S)-3-(4-((1-isobutoxy-3-(2′-(trifluoromethyl)-[1,1′-biphenyl]-4-yl)propan-2-yl)amino)benzamido)propanoic Acid] | – | – | 2120 | 871
CC[C@H](C)[C@@H](COc1ccc(-c2nnc(C(C)(C)C)o2)cc1)Nc1ccc(C(=O)NCCC(=O)O)cc1 [Compound 1-45, 3-(4-(((2S,3S)-1-(4-(5-(tert-butyl)-1,3,4-oxadiazol-2-yl)phenoxy)-3-methylpentan-2-yl)amino)benzamido)propanoic Acid] | 1520 | 11981 | – | –
CC(C)[C@@H](COc1nnc(-c2cc3ccccc3o2)o1)Nc1ccc(C(=O)NCCC(=O)O)cc1 [Compound 22-12, (S)-3-(4-((1-((5-(benzofuran-2-yl)-1,3,4-oxadiazol-2-yl)oxy)-3-methylbutan-2-yl)amino)benzamido)propanoic Acid] | – | – | > 30000 | >30000
CC(C)C[C@@H](COc1ccc(-c2ccc(C(F)(F)F)nn2)cn1)Nc1ccc(C(=O)NCCC(=O)O)cc1 [Compound 15-19, (S)-3-(4-((4-methyl-1-((5-(6-(trifluoromethyl)pyridazin-3-yl)pyridin-2-yl)oxy)pentan-2-yl)amino)benzamido)propanoic Acid] | – | – | 2990 | >30000
CCCOC[C@H](Cc1ccc(-c2ccc(C(C)(C)C)cc2)cc1)Nc1ccc(C(=O)NCCC(=O)O)cc1 [Compound 19-12, (S)-3-(4-((1-(4′-(tert-butyl)-[1,1′-biphenyl]-4-yl)-3-propoxypropan-2-yl)amino)benzamido)propanoic Acid] | – | – | 763 | 1788
CC(C)(C)[C@@H](COc1ccc(-c2cc3ccccc3o2)c(Cl)c1)Nc1ccc(C(=O)NCCC(=O)O)cc1 [Compound 3-23, (S)-3-(4-((1-(4-(benzofuran-2-yl)-3-chlorophenoxy)-3,3-dimethylbutan-2-yl)amino)benzamido)propanoic Acid] | 156 | 293 | – | –
CC(C)(C)[C@@H](COc1ccc(-c2ccc(Cl)cc2Cl)cc1)Nc1ccc(C(=O)NCCC(=O)O)cc1 [Compound 1-36, (S)-3-(4-((1-((2′,4′-dichloro-[1,1′-biphenyl]-4-yl)oxy)-3,3-dimethylbutan-2-yl)amino)benzamido)propanoic Acid] | 141 | 243 | – | –
O=C(O)CCNC(=O)c1ccc(N[C@H](COc2ccc(-c3cc4ccccc4o3)cn2)c2ccc(-c3ccc(C(F)(F)F)cc3)cc2)cc1 [Compound 15-29, (S)-3-(4-((2-((5-(benzofuran-2-yl)pyridin-2-yl)oxy)-1-(4′-(trifluoromethyl)-[1,1′-biphenyl]-4-yl)ethyl)amino)benzamido)propanoic Acid] | – | – | 20 | 107
CC(C)C[C@@H](COc1ccc(-c2ccc(C(F)(F)F)cc2F)cn1)Nc1ccc(C(=O)NCCC(=O)O)cc1 [Compound 15-16, (S)-3-(4-((1-((5-(2-fluoro-4-(trifluoromethyl)phenyl)pyridin-2-yl)oxy)-4-methylpentan-2-yl)amino)benzamido)propanoic Acid] | – | – | 669 | 999
CC[C@H](C)[C@@H](COc1ccc(-c2cc3ccccc3o2)c(OC)c1)Nc1ccc(C(=O)NCCC(=O)O)cc1 [Compound 13-1, 3-(4-(((2S,3S)-1-(4-(benzofuran-2-yl)-3-methoxyphenoxy)-3-methylpentan-2-yl)amino)benzamido)propanoic Acid] | 46 | 157 | – | –
CCOC(=O)CCNC(=O)c1ccc(N[C@@H](CC(C)C)C(=O)Nc2ccc(-c3cc4ccccc4o3)cc2)cc1 [Compound 23-6, Ethyl (S)-3-(4-((1-((4-(benzofuran-2-yl)phenyl)amino)-4-methyl-1-oxopentan-2-yl)amino)benzamido)propanoate] | – | – | 2510 | 181
CCCC[C@@H](COc1ccc(-c2nnc(C(C)(C)C)o2)cc1)Nc1ccc(C(=O)NCCC(=O)O)cc1 [Compound 1-49, (S)-3-(4-((1-(4-(5-(tert-butyl)-1,3,4-oxadiazol-2-yl)phenoxy)hexan-2-yl)amino)benzamido)propanoic Acid] | 7200 | 7065 | – | –
CC(C)[C@@H](COc1ccc(-c2ccc(C(F)(F)F)cc2)cn1)Nc1ccc(C(=O)NCc2nnn[nH]2)cc1 [Compound 15-2, (S)—N-((1H-tetrazol-5-yl)methyl)-4-((3-methyl-1-((5-(4-(trifluoromethyl)phenyl)pyridin-2-yl)oxy)butan-2-yl)amino)benzamide] | – | – | 390 | 1543
CC[C@H](C)[C@@H](COc1ccc(-c2ccc(Cl)cc2Cl)cc1)Nc1ccc(C(=O)NC[C@@H](O)C(=O)O)cc1 [Compound 1-14, (R)-3-(4-(((2S,3S)-1-((2′,4′-dichloro-[1,1′-biphenyl]-4-yl)oxy)-3-methylpentan-2-yl)amino)benzamido)-2-hydroxypropanoic Acid] | 112 | 3553 | – | –
